SMILES strings stand for the structures.

This experiment addresses T1, TNKS1 (Homo sapiens, UniProt O95271).
T1 sequence (O95271 1-1327): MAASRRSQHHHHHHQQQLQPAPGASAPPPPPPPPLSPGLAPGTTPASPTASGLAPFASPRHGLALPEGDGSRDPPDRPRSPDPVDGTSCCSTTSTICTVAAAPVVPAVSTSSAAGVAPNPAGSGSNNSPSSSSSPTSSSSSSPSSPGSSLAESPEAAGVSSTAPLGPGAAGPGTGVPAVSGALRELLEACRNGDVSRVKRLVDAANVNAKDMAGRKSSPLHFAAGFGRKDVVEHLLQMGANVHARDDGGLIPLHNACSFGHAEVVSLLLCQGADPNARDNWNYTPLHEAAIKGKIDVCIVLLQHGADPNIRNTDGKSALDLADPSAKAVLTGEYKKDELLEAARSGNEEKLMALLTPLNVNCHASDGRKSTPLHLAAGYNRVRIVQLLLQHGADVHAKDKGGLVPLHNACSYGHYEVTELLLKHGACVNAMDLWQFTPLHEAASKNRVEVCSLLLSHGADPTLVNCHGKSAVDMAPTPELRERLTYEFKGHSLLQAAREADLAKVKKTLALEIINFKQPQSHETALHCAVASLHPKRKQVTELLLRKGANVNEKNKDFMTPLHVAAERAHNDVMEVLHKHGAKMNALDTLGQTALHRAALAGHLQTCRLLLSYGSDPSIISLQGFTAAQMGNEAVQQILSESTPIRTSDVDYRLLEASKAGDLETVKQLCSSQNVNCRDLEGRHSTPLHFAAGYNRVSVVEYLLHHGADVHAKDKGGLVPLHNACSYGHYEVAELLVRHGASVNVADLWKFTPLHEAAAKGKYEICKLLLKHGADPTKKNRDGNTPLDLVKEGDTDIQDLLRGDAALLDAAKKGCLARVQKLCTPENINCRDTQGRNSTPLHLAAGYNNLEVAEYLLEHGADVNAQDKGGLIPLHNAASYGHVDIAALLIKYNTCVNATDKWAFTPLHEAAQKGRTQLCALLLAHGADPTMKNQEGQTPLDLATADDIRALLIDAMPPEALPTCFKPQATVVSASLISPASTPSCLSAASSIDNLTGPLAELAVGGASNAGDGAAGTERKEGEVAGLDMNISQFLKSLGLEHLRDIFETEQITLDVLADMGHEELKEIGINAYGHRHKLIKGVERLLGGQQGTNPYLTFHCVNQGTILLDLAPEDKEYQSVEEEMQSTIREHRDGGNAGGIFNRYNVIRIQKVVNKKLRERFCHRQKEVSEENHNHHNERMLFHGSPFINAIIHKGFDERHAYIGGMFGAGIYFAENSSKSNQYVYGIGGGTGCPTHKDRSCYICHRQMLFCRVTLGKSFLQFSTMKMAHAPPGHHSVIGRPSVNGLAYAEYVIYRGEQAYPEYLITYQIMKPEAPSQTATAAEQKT
Kind of experiment: Modified TNKS1 Assay 2 (auto-parsylation, [3H]-NAD+ SPA). It is filed as biochemical. Conditions: 6 nM TNKS1, 96 well.
What is called IC50 is the concentration needed to halve the response being measured. Lower therefore signals inhibition by little substance. As to `O=C(NCCN1CCCCC1)c1nc[nH]c1C(=O)Nc1ccc(NC(=O)c2c(F)cc(F)cc2Cl)cc1` [Example 119, N^5-{4-[(2-chloro-4,6-difluorobenzoyl)amino]phenyl}-N^4-[2-(piperidin-1-yl)ethyl]-1H-imidazole-4,5-dicarboxamide], the IC50 came to 2 nM.
`CCOc1ccc(C(=O)Nc2ccc(NC(=O)c3[nH]cnc3C(=O)NC)cc2)c(Cl)c1` [Example 250, N^5-{4-[(2-chloro-4-ethoxybenzoyl)amino]phenyl}-N^4-methyl-1H-imidazole-4,5-dicarboxamide]: inhibition was half-maximal at 230 nM (IC50).
To `O=C(Nc1ccc(NC(=O)c2nc[nH]c2C(=O)NCCN2CCCC2)cc1)c1ccc(F)cc1` [Example 176, N^4-{4-[(4-fluorobenzoyl)amino]phenyl}-N^5-[2-(pyrrolidin-1-yl)ethyl]-1H-imidazole-4,5-dicarboxamide] belongs 50 nM; to `CC(C)(CN1CCOCC1)NC(=O)c1[nH]cnc1C(=O)Nc1ccc(NC(=O)c2ccc(F)cc2)cc1` [Example 180, N^4-{4-[(4-fluorobenzoyl)amino]phenyl}-N^5-[2-methyl-1-(morpholin-4-yl)propan-2-yl]-1H-imidazole-4,5-dicarboxamide], 4000 nM.
`CNC(=O)c1nc[nH]c1C(=O)Nc1ccc(NC(=O)c2ccccc2C(F)F)cc1` [Example 241, N^5-(4-{[2-(difluoromethyl)benzoyl]amino}phenyl)-N^4-methyl-1H-imidazole-4,5-dicarboxamide] returned a concentration for half-maximal inhibition (IC50) of 2500 nM.
Regarding `CC1CCCN(CCNC(=O)c2[nH]cnc2C(=O)Nc2ccc(NC(=O)c3ccc(F)cc3Cl)cc2)C1` (stereo not shown) [Example 208, N^4-{4-[(2-chloro-4-fluorobenzoyl)amino]phenyl}-N^5-[2-(3-methylpiperidin-1-yl)ethyl]-1H-imidazole-4,5-dicarboxamide], the midpoint of inhibition, the IC50, lay at 3 nM.
As for `CC(C)(CNC(=O)c1[nH]cnc1C(=O)Nc1ccc(NC(=O)c2ccc(F)cc2)cc1)N1CCCCC1` [Example 209, N^4-{4-[(4-fluorobenzoyl)amino]phenyl}-N^5-[2-methyl-2-(piperidin-1-yl)propyl]-1H-imidazole-4,5-dicarboxamide], the figure is 400 nM; as for `CC1CCN(CC(C)(C)NC(=O)c2[nH]cnc2C(=O)Nc2ccc(NC(=O)c3ccc(F)cc3Cl)cc2)CC1` [Example 155, N^4-{4-[(2-chloro-4-fluorobenzoyl)amino]phenyl}-N^5-[2-methyl-1-(4-methylpiperidin-1-yl)propan-2-yl]-1H-imidazole-4,5-dicarboxamide], 60 nM; as for `CNC(=O)c1nc[nH]c1C(=O)Nc1ccc(NC(=O)c2ccccc2Cl)cc1` [Example 27, N^5-{4-[(2-chlorobenzoyl)amino]phenyl}-N^4-methyl-1H-imidazole-4,5-dicarboxamide], 630 nM.
To `CC1CCCCN1CCNC(=O)c1[nH]cnc1C(=O)Nc1ccc(NC(=O)c2ccc(F)cc2)cc1` (stereo not shown) [Example 169, N^4-{4-[(4-fluorobenzoyl)amino]phenyl}-N^5-[2-(2-methylpiperidin-1-yl)ethyl]-1H-imidazole-4,5-dicarboxamide] belongs 90 nM.
